Laboratory results taken from ChEMBL document CHEMBL3351515, “α-Hexylcinnamaldehyde inhibits the genotoxicity of environmental pollutants in the bacterial reverse mutation assay” (2014).

Key:
[1] = tested on: Salmonella typhimurium; test: Antimutagenic activity against sodium azide-induced revertant colonies in Salmonella typhimurium TA100 assessed as number of revertant colonies measured pretreatment at 180 uM (reference value: 1968 +/- 46.9) in absence of mammalian S9 fraction; assay type: functional, Salmonella enterica subsp. enterica serovar Typhimurium
[2] = tested on: Salmonella typhimurium; test: Antimutagenic activity against 2-aminoanthracene-induced revertant colonies in Salmonella typhimurium TA100 assessed as number of revertant colonies measured pretreatment at 9 uM (reference value: 481.3 +/- 5.3) in presence of mammalian S9 fraction; assay type: functional, Salmonella enterica subsp. enterica serovar Typhimurium
[3] = tested on: Salmonella typhimurium; test: Antimutagenic activity against 2-aminoanthracene-induced revertant colonies in Salmonella typhimurium TA100 assessed as number of revertant colonies measured pretreatment at 18 uM (reference value: 481.3 +/- 5.3) in presence of mammalian S9 fraction; assay type: functional, Salmonella enterica subsp. enterica serovar Typhimurium
[4] = tested on: Salmonella typhimurium; test: Antimutagenic activity against 2-aminoanthracene-induced revertant colonies in Salmonella typhimurium TA100 assessed as number of revertant colonies measured pretreatment at 900 uM (reference value: 481.3 +/- 5.3) in presence of mammalian S9 fraction; assay type: functional, Salmonella enterica subsp. enterica serovar Typhimurium
[5] = tested on: Salmonella typhimurium; test: Antimutagenic activity against sodium azide-induced revertant colonies in Salmonella typhimurium TA100 assessed as number of revertant colonies measured cotreatment at 18 uM (reference value: 1588 +/- 55.6) in absence of mammalian S9 fraction; assay type: functional, Salmonella enterica subsp. enterica serovar Typhimurium
[6] = tested on: Salmonella typhimurium; test: Antimutagenic activity against sodium azide-induced revertant colonies in Salmonella typhimurium TA100 assessed as number of revertant colonies measured cotreatment at 180 uM (reference value: 1588 +/- 55.6) in absence of mammalian S9 fraction; assay type: functional, Salmonella enterica subsp. enterica serovar Typhimurium
[7] = tested on: Salmonella typhimurium; test: Antimutagenic activity against 2-aminoanthracene-induced revertant colonies in Salmonella typhimurium TA100 assessed as number of revertant colonies measured cotreatment at 18 uM (reference value: 457.9 +/- 16.74) in presence of mammalian S9 fraction; assay type: functional, Salmonella enterica subsp. enterica serovar Typhimurium
[8] = tested on: Salmonella typhimurium; test: Antimutagenic activity against 2-aminoanthracene-induced revertant colonies in Salmonella typhimurium TA100 assessed as number of revertant colonies measured cotreatment at 90 uM (reference value: 457.9 +/- 16.74) in presence of mammalian S9 fraction; assay type: functional, Salmonella enterica subsp. enterica serovar Typhimurium
[9] = tested on: Salmonella typhimurium; test: Antimutagenic activity against 2-aminoanthracene-induced revertant colonies in Salmonella typhimurium TA100 assessed as number of revertant colonies measured cotreatment at 180 uM (reference value: 457.9 +/- 16.74) in presence of mammalian S9 fraction; assay type: functional, Salmonella enterica subsp. enterica serovar Typhimurium
[10] = tested on: Salmonella typhimurium; test: Antimutagenic activity against sodium azide-induced revertant colonies in Salmonella typhimurium TA100 assessed as number of revertant colonies measured post-treatment at 9 uM (reference value: 1909 +/- 29.7) in absence of mammalian S9 fraction; assay type: functional, Salmonella enterica subsp. enterica serovar Typhimurium
[11] = tested on: Salmonella typhimurium; test: Antimutagenic activity against sodium azide-induced revertant colonies in Salmonella typhimurium TA100 assessed as number of revertant colonies measured post-treatment at 180 uM (reference value: 1909 +/- 29.7) in absence of mammalian S9 fraction; assay type: functional, Salmonella enterica subsp. enterica serovar Typhimurium
[12] = tested on: Salmonella typhimurium; test: Antimutagenic activity against 2-aminoanthracene-induced revertant colonies in Salmonella typhimurium TA100 assessed as number of revertant colonies measured post-treatment at 90 uM (reference value: 642.7 +/- 2.7) in presence of mammalian S9 fraction; assay type: functional, Salmonella enterica subsp. enterica serovar Typhimurium
[13] = tested on: Salmonella typhimurium; test: Antimutagenic activity against 2-aminoanthracene-induced revertant colonies in Salmonella typhimurium TA100 assessed as number of revertant colonies measured post-treatment at 900 uM (reference value: 642.7 +/- 2.7) in presence of mammalian S9 fraction; assay type: functional, Salmonella enterica subsp. enterica serovar Typhimurium
[14] = tested on: Escherichia coli; test: Antimutagenic activity against methyl methansulfonate-induced revertant colonies in Escherichia coli WP2uvrA assessed as number of revertant colonies measured pretreatment at 18 uM (reference value: 466.7 +/- 40.4) in absence of mammalian S9 fraction; assay type: functional
[15] = tested on: Escherichia coli; test: Antimutagenic activity against methyl methansulfonate-induced revertant colonies in Escherichia coli WP2uvrA assessed as number of revertant colonies measured pretreatment at 90 uM (reference value: 466.7 +/- 40.4) in absence of mammalian S9 fraction; assay type: functional
[16] = tested on: Escherichia coli; test: Antimutagenic activity against methyl methansulfonate-induced revertant colonies in Escherichia coli WP2uvrA assessed as number of revertant colonies measured pretreatment at 900 uM (reference value: 466.7 +/- 40.4) in absence of mammalian S9 fraction; assay type: functional
[17] = tested on: Escherichia coli; test: Antimutagenic activity against 2-aminoanthracene-induced revertant colonies in Escherichia coli WP2uvrA assessed as number of revertant colonies measured pretreatment at 9 uM (reference value: 178.7 +/- 11.8) in presence of mammalian S9 fraction; assay type: functional
[18] = tested on: Escherichia coli; test: Antimutagenic activity against 2-aminoanthracene-induced revertant colonies in Escherichia coli WP2uvrA assessed as number of revertant colonies measured pretreatment at 180 uM (reference value: 178.7 +/- 11.8) in presence of mammalian S9 fraction; assay type: functional
[19] = tested on: Escherichia coli; test: Antimutagenic activity against methyl methansulfonate-induced revertant colonies in Escherichia coli WP2uvrA assessed as number of revertant colonies measured cotreatment at 90 uM (reference value: 485.3 +/- 17.5) in absence of mammalian S9 fraction; assay type: functional
[20] = tested on: Escherichia coli; test: Antimutagenic activity against 2-aminoanthracene-induced revertant colonies in Escherichia coli WP2uvrA assessed as number of revertant colonies measured cotreatment at 9 uM (reference value: 366 +/- 10.3) in presence of mammalian S9 fraction; assay type: functional
[21] = tested on: Escherichia coli; test: Antimutagenic activity against 2-aminoanthracene-induced revertant colonies in Escherichia coli WP2uvrA assessed as number of revertant colonies measured cotreatment at 18 uM (reference value: 366 +/- 10.3) in presence of mammalian S9 fraction; assay type: functional
[22] = tested on: Escherichia coli; test: Antimutagenic activity against 2-aminoanthracene-induced revertant colonies in Escherichia coli WP2uvrA assessed as number of revertant colonies measured cotreatment at 90 uM (reference value: 366 +/- 10.3) in presence of mammalian S9 fraction; assay type: functional
[23] = tested on: Escherichia coli; test: Antimutagenic activity against methyl methansulfonate-induced revertant colonies in Escherichia coli WP2uvrA assessed as number of revertant colonies measured post-treatment at 180 uM (reference value: 726.7 +/- 12.7) in absence of mammalian S9 fraction; assay type: functional
[24] = tested on: Escherichia coli; test: Antimutagenic activity against 2-aminoanthracene-induced revertant colonies in Escherichia coli WP2uvrA assessed as number of revertant colonies measured post-treatment at 9 uM (reference value: 308 +/- 4) in presence of mammalian S9 fraction; assay type: functional
[25] = tested on: Salmonella typhimurium; test: Antimutagenic activity against 2-nitrofluorene-induced revertant colonies in Salmonella typhimurium TA98 assessed as inhibition of mutagenicity measured at 9 to 18 uM; assay type: functional, Salmonella enterica subsp. enterica serovar Typhimurium
[26] = tested on: Salmonella typhimurium; test: Antimutagenic activity against 1-nitropyrene-induced revertant colonies in Salmonella typhimurium TA98 assessed as inhibition of mutagenicity measured at 9 to 18 uM; assay type: functional, Salmonella enterica subsp. enterica serovar Typhimurium
[27] = tested on: Salmonella typhimurium; test: Antimutagenic activity against 1,8-dinitropyrene-induced revertant colonies in Salmonella typhimurium TA98 assessed as inhibition of mutagenicity measured at 9 to 18 uM; assay type: functional, Salmonella enterica subsp. enterica serovar Typhimurium
[28] = tested on: Salmonella typhimurium; test: Antimutagenic activity against 1-nitropyrene-induced revertant colonies in Salmonella typhimurium TA98NR assessed as inhibition of mutagenicity measured at 9 to 18 uM; assay type: functional, Salmonella enterica subsp. enterica serovar Typhimurium
[29] = tested on: Salmonella typhimurium; test: Antimutagenic activity against 1-nitropyrene-induced revertant colonies in Salmonella typhimurium TA98 1,8 DNP assessed as inhibition of mutagenicity measured at 90 to 180 uM; assay type: functional, Salmonella enterica subsp. enterica serovar Typhimurium
[30] = tested on: Salmonella typhimurium; test: Antimutagenic activity against 1-nitropyrene-induced revertant colonies in Salmonella typhimurium TA98 1,8 DNP assessed as inhibition of mutagenicity measured at 900 uM; assay type: functional, Salmonella enterica subsp. enterica serovar Typhimurium; settings: Salmonella enterica

CCCCCC/C(C=O)=C\c1ccccc1
Activity [1]: 1797
Activity [2]: 465.3
Activity [3]: 453.3
Activity [4]: 365.3
Activity [5]: 1501
Activity [6]: 1457
Activity [7]: 446
Activity [8]: 408.5
Activity [9]: 404
Activity [10]: 1888
Activity [11]: 1771
Activity [12]: 530
Activity [13]: 481.3
Activity [14]: 451.3
Activity [15]: 436
Activity [16]: 365.3
Activity [17]: 170.7
Activity [18]: 147
Activity [19]: 466.7
Activity [20]: 336.8
Activity [21]: 330.7
Activity [22]: 334.3
Activity [23]: 488
Activity [24]: 294.7
inhibition (INH) [25]: <25%
inhibition (INH) [26]: <25%
inhibition (INH) [27]: <25%
inhibition (INH) [28]: <25%
inhibition (INH) [29]: 25%
inhibition at 900 µM [30]: > 40%
